Consider one compound from US10988743B2, “Coryneform bacterial transformant and method for producing 4-aminobenzoic acid or salt thereof using same” (RESEARCH INSTITUTE OF INNOVATIVE TECHNOLOGY FOR THE EARTH, priority 2016, dated 2021).

The structures appear in SMILES notation. “Also recorded” adds a separate entry of the source.

What all share (type): cell-based
The test system of experiment [1] is Corynebacterium glutamicum strain R. Nature of the experiment: Influence of para-aminobenzoic acid on glucose consumption rate (jar fermenter). Particulars: 0, 50, 100 or 200 mM para-aminobenzoic acid, 5% glucose, 33° C., pH 7.0. Here is the method: Influences of para-aminobenzoic acid on the glucose consumption rate were examined by a method described below, using Corynebacterium glutamicum strain R.
After a wild strain of Corynebacterium glutamicum was inoculated in 10 ml of the A-liquid medium containing 2% glucose, aerobic shaking culture was carried out at 33° C. for 18 hours. After the same strain was inoculated in 100 ml of the A-liquid medium containing 2% glucose, aerobic shaking culture was carried out at 33° C. for 12 hours. […]
Bacterial cells of the strain grown under the above-described conditions were collected by centrifugation (4° C., 5000×g, 10 minutes), and the bacterial cells thus obtained were washed with 0.9% sodium chloride aqueous solution once. […] The glucose concentration in the reaction solution was monitored by using a glucose sensor.

The test system of another experiment is Escherichia coli JM109. Nature of the experiment: Growth inhibition by para-aminobenzoic acid in aerobic culture (OD610). Particulars: aerobic shaking culture 37° C. As to the method:
(§1) Experiments about growth inhibition by para-aminobenzoic acid in aerobic culture were carried out, regarding Corynebacterium glutamicum, Escherichia coli, Streptomyces lividans, Pseudomonas putida, and Saccharomyces cerevisiae. No example of Pseudomonas putida S12 used in the present experiment has been reported to be a para-aminobenzoic acid producing host, but it was used as a comparative example, since it has been reported to be a solvent resistant bacterium and could be considered to have excellent resistance to para-aminobenzoic acid.
Escherichia coli JM109 was applied to LB-agar plate [containing 1% polypeptone, 0.5% yeast extract, 0.5% sodium chloride, and 1.5% agar], and was incubated at 37° C. for 15 hours in a dark place. Escherichia coli grown on the plate described above was inoculated in LB-liquid medium [containing 1% polypeptone, 0.5% yeast extract, and 0.5% sodium chloride], and was subjected to aerobic shaking culture at 37° C. for 13 hours. Escherichia coli grown under the above-described conditions was inoculated in 100 ml of LB-liquid medium so that the initial bacterial cell concentration OD610=0.05. […] The growth of bacterial cells was determined by measuring OD610.
(§2) How the addition of para-aminobenzoic acid to medium influenced aerobic growth was analyzed, and the results are shown in FIG. 1.

For the next experiment, the system named is Pseudomonas putida S12. Described as above. As to the method:
as §1
Pseudomonas putida S12 was applied to the LB-agar plate, and was incubated at 30° C. for 15 hours in a dark place. Pseudomonas putida grown on the plate described above was inoculated in the LB-liquid medium, and aerobic shaking culture was carried out at 30° C. for 13 hours. Pseudomonas putida grown under the above-described conditions was inoculated in 100 ml of LB-liquid medium so that the initial bacterial cell concentration OD610=0.05, simultaneously, para-aminobenzoic acid was added so that the final concentrations thereof became 0, 100, 200, 300 mM, and aerobic shaking culture was carried out at 30° C. The growth of bacterial cells was determined by measuring absorbance of OD610.
as §2

In experiment [2] the test system is Streptomyces lividans 1326. The experiment is described as above. Particulars: for growth of Streptomyces lividans 1326: aerobic shaking culture 28° C. Here is the method: as §1
Streptomyces lividans 1326 was applied to LB-agar plate, and was incubated at 28° C. for 24 hours in a dark place. Streptomyces lividans grown on the plate described above was inoculated in LB-liquid medium with a coil spring, and aerobic shaking culture was carried out at 28° C. for 24 hours. Streptomyces lividans grown under the above-described conditions was inoculated in 10 ml of LB-liquid medium with a coil spring so that the initial bacterial cell concentration OD610=0.2. Simultaneously, para-aminobenzoic acid was added so that the final concentrations thereof became 0, 100, 200, 300 mM, and aerobic shaking culture was carried out at 28° C. The growth of bacterial cells was determined by measuring OD610.
as §2

Experiment [3] concerns Saccharomyces cerevisiae W303. The description is as above. Particulars: aerobic shaking culture 30° C. As to the method: as §1
Saccharomyces cerevisiae W303 was applied to YEPD-agar plate [containing 2% polypeptone, 1% yeast extract, 2% glucose, and 1.5% agar] and was incubated at 30° C. for 20 hours in a dark place. Saccharomyces cerevisiae grown on the plate described above was inoculated in the YEPD-liquid medium [containing 2% polypeptone, 1% yeast extract, and 2% glucose], and aerobic shaking culture was carried out at 30° C. for 13 hours. Saccharomyces cerevisiae grown under the above-described conditions was inoculated in 100 ml of YEPD-liquid medium so that the initial bacterial cell concentration OD610=0.05. […] The growth of bacterial cells was determined by measuring OD610.
as §2

Experiment [4] has as its system Corynebacterium glutamicum strain R. Described as above. Particulars: aerobic shaking culture 33° C. As to the method: as §1
Corynebacterium glutamicum strain R was applied to an A-agar plate containing glucose at 4%, and was incubated at 33° C. for 15 hours in a dark place. One platinum loop of Corynebacterium glutamicum grown on the plate described above was inoculated in a test tube having therein 10 ml of the A-liquid medium containing of glucose at 4%, and was subjected to aerobic shaking culture at 33° C. for 15 hours. Corynebacterium glutamicum grown under the above-described conditions was inoculated in 10 ml of the A-liquid medium containing glucose at 4% so that the initial bacterial cell concentration OD610=0.05. […] The growth of bacterial cells was determined by measuring OD610.
as §2

As for `Nc1ccc(C(=O)O)cc1` [para-aminobenzoic acid, 4-aminobenzoic acid], the “saccharide (glucose) consumption rate of Corynebacterium glutamicum” value in experiment [1] is on record as “no substantial decrease”. Moreover, the “growth of Escherichia coli JM109” value is “significantly inhibited” in the experiment on Escherichia coli JM109 (100 mM para-aminobenzoic acid) and “substantially completely inhibited” in the experiment on Escherichia coli JM109 (300 mM para-aminobenzoic acid). Further, the “growth of Pseudomonas putida S12” value in the experiment with Pseudomonas putida S12 (100 mM para-aminobenzoic acid, aerobic shaking culture 30° C.) is given as “substantially completely inhibited”. The “growth of Pseudomonas putida” value in the experiment on Pseudomonas putida S12 (300 mM para-aminobenzoic acid) is recorded as “substantially completely inhibited”. Besides, the “growth of Streptomyces lividans 1326” value is “significantly inhibited” in experiment [2] (100 mM para-aminobenzoic acid) and “substantially completely inhibited” in experiment [2] (200 mM para-aminobenzoic acid). In addition, in experiment [2] (300 mM para-aminobenzoic acid), the “growth of Streptomyces lividans” value was “substantially completely inhibited”. Besides, the “growth of Saccharomyces cerevisiae W303” value is listed as “strongly inhibited” in experiment [3] (200 mM para-aminobenzoic acid) and “extremely strongly inhibited; also recorded: substantially completely inhibited” in experiment [3] (300 mM para-aminobenzoic acid). The “growth of Corynebacterium glutamicum strain R” value in experiment [4] (300 mM para-aminobenzoic acid) is given as “able to grow”. Besides, the “growth of Corynebacterium glutamicum” value in experiment [4] (400 mM para-aminobenzoic acid) is reported as “able to grow”.
